Patent US4770870A, “Method for reducing pain associated with the administration of 4-sulfido-oxazaphosphorines and 4-sulfoalkylthio-oxazaphorphorines” (Asta Pharma Aktiengesellschaft, priority 1981, dated 1988)
Structures can show the parent of a compound that is named as a salt. Where two headings read alike, the source gives them in different places.

Assays:
[1] = Subchronic toxicity, NMRI-mouse; details: same pattern without cysteine, total dosage 3 mmol/kg
[2] = test system: Human mammary-carcinoma; assay: Human mammary-carcinoma heterotransplanted to nu/nu mice; type: in vivo, human tumor in mouse (nu/nu); details: cyclophosphamide single injection of 100 mg/kg
Description: (The experimental procedure was carried out as follows according to: C. O. Polvsen, G. K. Jacobsen, J. Rygaard, The Laboratory Animal in Drug Testing, Editor A. Spiegel, pages 63-73, Fischer-Verlag, Stuttgart, (1973).
(a) Human mammary-carcinoma from operation material of a women's clinic were heterotransplanted to thymusaplastic nu/ny mice. After the 23-25th passage in each case by implantation of a thin tumor section having a diameter of 8-10 mm into the milk ducts after growth of the implants to 0.15-0.25 grams the animals were subjected to therapy and the curative effect determined through measuring the tumor surface.

[3] = Acute toxicity (LD50), single intravenous dose, species not stated; details: in vivo
[4] = mouse, in vivo

SMILES: CC(=O)N[C@@H](CS)C(=O)O [NAC, N-acetyl-cysteine]
- prevention of pain induced by mafosfamide lysine salt (5 molar mesna or NAC solution): completely prevented the pain-inducing effect of mafosfamide lysine salt

SMILES: O=S(=O)([O-])CCS.[Na+]
- prevention of pain induced by mafosfamide lysine salt (rat, in vivo): completely prevented the pain-inducing effect of mafosfamide lysine salt

SMILES: O=P1(NCCCl)OCCCN1CCCl (centres unmarked) [ifosfamide]
- Approximate threshold concentration inducing venous pain (rat, in vivo): > 10 mg/mL
- Reaction (+ = reaction, - = no reaction) (rat, in vivo): +
- concentration at which no reaction was induced (rat, in vivo): below 10 mg/ml

SMILES: Cl [HCl pH 4, hydrochloric acid]
- Reaction (+ = reaction, - = no reaction) (rat, in vivo): -
- reaction (rat, in vivo): Neither

SMILES: O=P1(N(CCCl)CCCl)NCCCO1 (centres unmarked) [cyclophosphamide]
- deaths of mice [1]: 6 mice
- Approximate threshold concentration inducing venous pain (Table 1, sleeping rat): 30 mg/mL
- concentration at which no reaction was induced (sleeping rat): below 30 mg/ml
- Reaction (+ = reaction, - = no reaction) (sleeping rat, tail vein infusion): +
- tumor growth [2]: checking of the tumor growth
- LD50 [3]: 244 mg/kg

SMILES: O=P1(N(CCCl)CCCl)NC(SCC(S)CS(=O)(=O)O)CCO1 (centres unmarked) [cyclohexylamine salt, 3-[2-(bis-(2-chloroethyl)-amine-2-oxo-tetrahydro-2H-1,3,2-oxazaphosphorine-4-yl-thio]-2-mercaptopropanesulfonic acid-cyclohexylamine salt]
- increase of the LD50 [4]: 2-3 fold
